# Laboratory results: US11660258B2, “Alcohol containing non-antimicrobial cleansing composition” (GOJO Industries, Inc., priority 2017, dated 2023)
# What was measured:
# human skin [1] = experiment: Forearm controlled application test (FCAT), transepidermal water loss (TEWL)
# Protocol: (§1) Topical compositions were tested on skin samples for their ability to improve or maintain skin hydration and limit transepidermal water loss (TEWL). Measurement of the TEWL, expressed in grams per square meter and per hour, is used for studying the water barrier function of the human skin. The more perfect the skin protective coat, the higher the water content and the lower the TEWL. For each of the tests, a negative control was used, which included treatment with 8% SLS. An untreated skin sample was also tested for comparison. The tests were performed using the forearm controlled application test (FCAT) methodology. The various samples were applied to test sites on a forearm over the course of several days. On each day, up to six applications were made and the change in TEWL and hydration levels were recorded. The hydration levels were measured using a Corneometer® based on capacitance measurement of a dielectric medium. The Corneometer® measures the change in the dielectric constant due to skin surface hydration changing the capacitance of a precision capacitor. The measurement can detect even slight changes in the hydration level.
# (§2) The compositions that were tested include the following, in weight %, based on the weight of the total composition: […]
# human skin [2] = experiment: Forearm controlled application test (FCAT), skin hydration by Corneometer
# Protocol: as §1, §2
# [3] = Example 2, wet and dry application, after 3 and 5 days of treatment
compound,measurement,setting,value
"CCCCCCCCCCCCOS(=O)(=O)[O-].[Na+] [negative control, sodium lauryl sulfate]",TEWL (change vs baseline),"human skin [1]; Example 1, FIG. 6, up to six applications per day over several days",highest TEWL
same,change in TEWL,human skin [1]; [3],significant TEWL
same,hydration levels (change vs baseline),"human skin [2]; Example 1, FIG. 5, up to six applications per day over several days",lowest hydration levels
same,change in hydration levels,human skin [2]; [3],significant reduction in hydration level
